Reference: publication PMC10955468 (Frontiers in Pharmacology, 2024)

What was measured:
TMEM206 (PAORAC/ASOR) [1] = molecular target: T1, TMEM206 (PAORAC/ASOR) (Homo sapiens, UniProt Q9H813); experiment: whole-cell patch clamp, HCT116; type: cell-based; details: HCT-116; read-out: % residual current at 100 μM
T1 construct: gene PACC1; native full-length channel in HCT116 cells (whole-cell patch clamp); homo-trimer; current absent in TMEM206 knockout clones

TMEM206 (PAORAC/ASOR) [2] = molecular target: T1, TMEM206 (PAORAC/ASOR); experiment: whole-cell patch clamp, HCT116; type: cell-based; details: HCT-116, read-out: % inhibition at 100 μM

T1 sequence (Q9H813 whole entry): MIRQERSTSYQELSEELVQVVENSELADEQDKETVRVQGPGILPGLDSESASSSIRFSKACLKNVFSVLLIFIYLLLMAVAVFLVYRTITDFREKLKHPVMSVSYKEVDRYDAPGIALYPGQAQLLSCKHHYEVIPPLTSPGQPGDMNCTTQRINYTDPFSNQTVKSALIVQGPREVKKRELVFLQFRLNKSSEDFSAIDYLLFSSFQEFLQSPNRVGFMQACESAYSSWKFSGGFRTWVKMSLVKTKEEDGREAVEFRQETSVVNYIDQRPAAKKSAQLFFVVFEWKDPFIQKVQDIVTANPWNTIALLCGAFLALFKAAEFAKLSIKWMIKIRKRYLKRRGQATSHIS

SMILES	remaining activity at 100 µM (TMEM206 (PAORAC/ASOR) [1])	inhibition at 100 µM (TMEM206 (PAORAC/ASOR) [2])
Cc1cc(Cl)ccc1OC(C)C(=O)Nc1cc(Cl)ccc1C(=O)O (stereo not drawn) [LBA, 4-chloro-2-(2-(4-chloro-2-methylphenoxy)propanamido)benzoic acid]	53%	
O=C(O)c1ccccc1Nc1cccc(C(F)(F)F)c1 [flufenamic acid]		28%
O=C(O)c1cccnc1Nc1cccc(C(F)(F)F)c1 [niflumic acid]	38%	
